Converted amounts (≈) assume the structure as drawn. Read-outs that look alike come from different tables or passages of the source.
Key:
[1] = 30% aqueous dipotassium hydrogen phosphate
physchem = settings: 30% aqueous dipotassium hydrogen phosphate
[2] = cited from earlier work

solubility [1]: 15.1 grams per 100 ml of a salt sol | solubility (physchem): 79 mg/mL (≈ 705 mM)
Compound: C/C=C/C=C/C(=O)O [sorbic acid]
solubility in water ([2]; 100° C): approximately 3% | solubility in water ([2]; in words): low solubility
